# Assay: method code SF, from Rulke, H.; Friedel, A.; Martin, E.; Kottke, K.; Grafe, I.; Kuhmstedt, H. (1991). Investigations on the acidity ond partition properties of 1-phenyl-5-mercaptotetrazoles. Pharmazie, 46(6)456-457.
row,logP,SMILES
1,2.63,S=c1[nH]nnn1-c1ccc2ccccc2c1
2,2.54,S=c1[nH]nnn1-c1ccc(Br)cc1
3,2.34,S=c1[nH]nnn1-c1cccc(Cl)c1
4,2.39,S=c1[nH]nnn1-c1cccc(Br)c1
5,2.09,S=c1[nH]nnn1-c1ccc(Cl)cc1

# Further lines, the compound ahead of its results:
row,SMILES,logP
1,Cc1cccc(-n2nn[nH]c2=S)c1,2.29
2,S=c1[nH]nnn1-c1ccc(Cl)cc1Cl,2.89
3,S=c1[nH]nnn1-c1ccccc1I,3.14
4,S=c1[nH]nnn1-c1ccc(Cl)c(Cl)c1,2.68
5,S=c1[nH]nnn1-c1cccc(Cl)c1Cl,2.41
6,O=[N+]([O-])c1ccc(-n2nn[nH]c2=S)cc1,1.99

# Reference: the SangsterLogP compilation
